# Data: US12517113B2, “Multikinase degraders” (University of Houston System, priority 2019, dated 2026)
# Experiments:
# [1] = biological target: T1, CHK1 kinase (Homo sapiens, UniProt O14757); experiment: CHK1 degradation in A375 melanoma cells, western blotting; type: cell-based; conditions: western blot; for degradation of CHK1 kinase: 18 h treatment, 37° C., FIG. 6
# T1 construct: endogenous in cells; host or cells: A375 human malignant melanoma cells (ATCC)
# T1 sequence (O14757 1-476): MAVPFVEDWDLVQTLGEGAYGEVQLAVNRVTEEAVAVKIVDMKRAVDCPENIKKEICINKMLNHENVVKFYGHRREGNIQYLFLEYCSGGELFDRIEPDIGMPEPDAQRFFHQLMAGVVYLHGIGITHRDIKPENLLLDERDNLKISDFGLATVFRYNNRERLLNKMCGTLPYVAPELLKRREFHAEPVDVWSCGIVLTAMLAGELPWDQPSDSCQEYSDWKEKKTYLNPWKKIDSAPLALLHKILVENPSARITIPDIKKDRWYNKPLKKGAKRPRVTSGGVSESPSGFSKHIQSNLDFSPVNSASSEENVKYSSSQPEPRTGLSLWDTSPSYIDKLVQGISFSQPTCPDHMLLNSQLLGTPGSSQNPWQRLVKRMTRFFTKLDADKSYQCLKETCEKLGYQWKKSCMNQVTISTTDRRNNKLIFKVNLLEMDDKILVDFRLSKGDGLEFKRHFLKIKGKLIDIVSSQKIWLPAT
# Method: (§1) Tests were performed to determine the activity of the exemplary PROTACs PEG1-thalidomide, PEG2-thalidomide, PEG3-thalidomide, and PEG4-thalidomide having the structures shown above. Human A375 malignant melanoma cells were obtained from American Type Culture Collection ATCC) and cultured according to ATCC protocols. Subsequently cells were treated with the PROTACs for 18 h at 37° C. and 5% CO2. Subsequently cells were harvested and lysed using commercially available lysis buffer (Biorad) containing Roche cOmplete™ Protease Inhibitor Cocktail tablets. The amount of degraded proteins were probed with specific antibodies purchased from Cell Signaling in western blotting. α-Tubulin was used as the loading control.
# In further tests, human A375 malignant melanoma cells were treated with PEG2-thalidomide at different concentrations for 12 h at 37° C. and 5% CO2. Proteins CHK1, GAPDH, and α-Tubulin were probed by specific antibodies. GAPDH and α-Tubulin were used as the loading control. […] Cell culture conditions, lysis and western blotting were performed similar to above.
# [2] = tested on: MEK kinase; experiment: MEK degradation in A375 melanoma cells, western blotting; type: cell-based, human; conditions: 12 h, western blot, FIG. 8
# Method: as §1
# (§2) In further tests, the effect of PEG2-Thalidomide degrader […] was tested. Human A375 malignant melanoma cells were treated with PEG2-thalidomide for 12 h at 37° C. and 5% CO2. Proteins MEK and ERK were probed by specific antibodies. The procedure used was similar to the one outlined above.
# [3] = tested on: ERK kinase; experiment: ERK degradation in A375 melanoma cells, western blotting; type: cell-based, human; conditions: 12 h, western blot, FIG. 8
# Method: as §1, §2
# [4] = tested on: A375 malignant melanoma cells; experiment: A375 cell viability, CellTiter Glo assay; type: cell-based; conditions: Homo sapiens, A-375, 48 h treatment, 384 well plates, FIG. 10
# Method: In further tests, human A375 malignant melanoma cells were treated with PEG2-thalidomide for 48 h at 37° C. and 5% CO2. Subsequently, the viability of A375 malignant melanoma cells was checked using CellTiter Glo assay (Promega) in 384 well plates, and the luminescence signal was quantified using Biotek H1 plate reader.
degradation of CHK1 kinase [1],"dose response of degradation of CHK1 ([1]; different concentrations, 12 h, FIG. 7)",IC50 [4] [nM],Compound,degradation of MEK kinase [2],degradation of ERK kinase [3]
degrade the protein CHK1,demonstrating its degradation,768,N#CCc1ccc(Nc2nc(Nc3cc(C4CC4)[nH]n3)cc(C(=O)NCc3cn(CCOCCOCCNC(=O)COc4cccc5c4C(=O)N(C4CCC(=O)NC4=O)C5=O)nn3)n2)cc1 (stereo not drawn) [PEG2-thalidomide],degradation of MEK,not ERK
degrade the protein CHK1,–,–,N#CCc1ccc(Nc2nc(Nc3cc(C4CC4)[nH]n3)cc(C(=O)NCc3cn(CCOCCOCCOCCOCCNC(=O)COc4cccc5c4C(=O)N(C4CCC(=O)NC4=O)C5=O)nn3)n2)cc1 (stereo not drawn) [PEG4-thalidomide],–,–
